Where two headings read alike, the source gives them in different places. Marks after values point to notes of the source that are not given here.
Test system: MCF-7 breast cancer cells transfected with the human aromatase gene
Details: for Mean % Inhibition of Tumor Size vs Vehicle at Day 42 / Mean Tumor Size at Day 98 / Mice cured / Mice dead / Mice with Escape to 500 mm^3 / Percent of mice with cures: letrazole only
Method: The relative effects of the aromatase inhibitor agent letrozole and a test compound of the present invention were evaluated, when administered alone or in combination, on the in vivo growth of MCF-7 breast cancer cells transfected with the human aromatase gene.
In this study, cells (7.0×10^6 cells/mouse) were implanted subcutaneously in female ovariectomized athymic nude mice (n=10). Androstenedione was administered (via slow-release pellets) as a source of […].
The daily dose was administered in a target volume of 0.1 mL, which was adjusted according to subject weight. The oral vehicle was L21 (a mixture of 35% Labrasol, 35% Labrafac, and 30% Solutol). Individual vehicle-treated mice were removed from study when the tumor reached 1500 mm^3. After 100 days of treatment, treatment was stopped.

[1] = 10 μg/mouse orally once per day
[2] = 30 μg/mouse orally once per day

SMILES: N#Cc1ccc(C(c2ccc(C#N)cc2)n2cncn2)cc1 [letrozole]
- Mean % Inhibition of Tumor Size vs Vehicle at Day 42 [1]: 72%
- Mean Tumor Size at Day 98 [1]: 225 mm^3
- Mice cured [1]: 0 of 9
- Mice dead [1]: 1
- Mice with Escape to 500 mm^3 [1]: 2
- Percent of mice with cures [1]: 0% cured
- Mean % Inhibition of Tumor Size vs Vehicle at Day 42 [2]: 91%**
- Mean Tumor Size at Day 98 [2]: 146 mm^3
- Mice cured [2]: 2 of 9
- Mice dead [2]: 1
- Mice with Escape to 500 mm^3 [2]: 0
- Percent of mice with cures [2]: 22% cured
- Effect on tumor growth (letrozole (10 μg/mouse) alone): the tumors did not regress, tumor growth was prevented
- Effect on tumor growth (letrozole (30 μg/mouse) alone): the tumors regressed
- Mice with cures (no measurable tumor) at Day 100 (letrozole (30 μg/mouse) alone): two of the nine
